From publication PMC10786919, “Design-rules for stapled peptides with in vivo activity and their application to Mdm2/X antagonists” (Nature Communications, 2024)
In brackets after ≈: the same amount, converted by molar mass. Where two headings read alike, the source gives them in different places. Positions of bridges follow the written chain, without caps; N, C: chain ends. Non-standard residues stand in square brackets, D forms with d. Residues, ends and D or L forms follow the SMILES beside them. Lys(N3) = [N-]=[N+]=NCCCC[C@H](N)C(=O)O; hArg = N=C(N)NCCCC[C@H](N)C(=O)O; R8 = C=CCCCCCC[C@@](C)(N)C(=O)O; Cba = N[C@@H](CC1CCC1)C(=O)O; S5 = C=CCCC[C@](C)(N)C(=O)O; Aib = CC(C)(N)C(=O)O; βAla = NCCC(=O)O

Assays:
in vitro = experiment: in vitro
Method in brief: (§1)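 Azido-peptide permeability was read as loss of NanoBRET signal (donor 450 nm, acceptor 610 nm) after adding NanoBret618-azide at 10 μM final.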

[1] = Solubility assay (kinetic solubility, PBS pH 7); format: physicochemical; settings: pH 7, PBS; for solubility kinetic: pH 7, aqueous buffer, kinetic from dmso stock, read-out: Solubility
Method in brief: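 Std: 10 mM stock → 100 µM in ACN/MeOH/DMSO (10:80:10). Sol. [µM] = (sample peak area / std peak area) × std conc.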

physchem [2] = experiment: physchem
[3] = Lactate dehydrogenase (LDH) release assay; format: cell-based
Method in brief: (§2)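 Geometric means of at least three independent biological runs are given for LDH release measured in HCT116 cells stably expressing a p53-driven β-lactamase reporter. Plating density was 8000 cells/well; DMSO in wells was 0.5%.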

[4] = Experimental LogD (partition coefficient); settings: for logD: not stated, Partition Coeff LogD
[5] = system: cells transiently transfected with the NanoLuc-HaloTag vector; experiment: Nanoclick permeability assay; settings: 4Hr
Method in brief: as §1

[6] = Circular dichroism (CD) helicity; format: physicochemical
Description: A total of 5 µL of the 10 mM stock peptide was mixed with 45 µL of 100% methanol, and dried for 2 h in the SpeedVac concentrator (Thermo Scientific). The dried peptide was reconstituted in a buffer (1 mM Hepes pH 7.4 and 5% methanol) to a concentration of 1 mM. The peptide sample was placed in a quartz cuvette with a path length of 0.2 cm. The peptide concentration was determined by the absorbance of the peptide at […]. The CD spectrum was recorded from 300 to 190 nm using the Chirascan-plus qCD machine (Applied Photophysics, Surrey, UK), at 25 °C. All experiments were done in duplicates. The CD spectrum was converted to mean residue ellipticity before deconvolution and estimation of the secondary structure components of the peptide using the CDNN software (distributed by Applied Photophysics). Measurements were taken at least twice and were reported as arithmetic means.

[7] = system: Jump-In T-REx CHO-K1 BLA cells; experiment: cells; format: cell-based
physchem [8] = experiment: physchem; remark: listed apart in the source
[9] = system: p53 responsive β-lactamase reporter in HCT116 cells; experiment: cells; format: cell-based; settings: 0% FBS 4Hr; read-out: p53 reporter assay: EC50
Method in brief: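 HCT116 cells stably carrying a p53-responsive β-lactamase reporter, seeded at 8000 cells/well, with 0.5% DMSO final. Reporter activity read by ToxBLAzer Dual Screen. Values are geometric means of at least three biological replicates.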

HCT116 cells = experiment: Lactate dehydrogenase (LDH) release assay; format: cell-based
Method in brief: as §2

[10] = Nanoclick permeability assay EC50

Structure (SMILES) | cell entry EC50 (in vitro; [10]) | solubility kinetic [1] | EPSA (physchem [2]) | EC50 ([3]; LDH: Cytotoxicity assay EC50) | logD [4] | other results
CC(=O)N[C@@H](CCCCN=[N+]=[N-])C(=O)NCCC(=O)N[C@@H](CC(C)C)C(=O)N[C@H](C(=O)N[C@@H](Cc1ccccc1)C(=O)N[C@]1(C)CCCCCCC=CCCC[C@@](C)(C(=O)N[C@@H](CO)C(=O)N[C@@H](C)C(=O)N[C@@H](CCCCNC(=N)N)C(N)=O)NC(=O)[C@H](CC2CCC2)NC(=O)[C@H](CCC(N)=O)NC(=O)[C@H](C)NC(=O)[C@H](Cc2c[nH]c3ccccc23)NC(=O)[C@H](Cc2ccc(O)cc2)NC(=O)[C@H](CCC(=O)O)NC1=O)[C@@H](C)O [MP-902] (Ac-[Lys(N3)][βAla]LTF[R8]EYWAQ[Cba][S5]SA[hArg]-NH2; staple 6-13) | 2650 nM | 6 µM (≈ 12.4 µg/mL) | 191 A^2 | > 50000 nM | 2.54 | 
CC(=O)N[C@@H](CCCCN=[N+]=[N-])C(=O)NCCC(=O)N[C@@H](CC(C)C)C(=O)N[C@H](C(=O)N[C@@H](Cc1ccccc1)C(=O)N[C@]1(C)CCCCCCC=CCCC[C@@](C)(C(=O)N[C@@H](CO)C(=O)N[C@@H](C)C(=O)N[C@@H](C)C(N)=O)NC(=O)[C@H](CC2CCC2)NC(=O)[C@H](CCC(N)=O)NC(=O)[C@H](C)NC(=O)[C@H](Cc2c[nH]c3ccccc23)NC(=O)[C@H](Cc2ccc(O)cc2)NC(=O)[C@H](CCCCNC(=N)N)NC1=O)[C@@H](C)O [MP-6898] (Ac-[Lys(N3)][βAla]LTF[R8][hArg]YWAQ[Cba][S5]SAA-NH2; staple 6-13) | 2120 nM | 2 µM (≈ 4.02 µg/mL) | 181 A^2 | 12400 nM | 3.21 | 
CC(=O)N[C@@H](CC(C)C)C(=O)N[C@H](C(=O)N[C@@H](Cc1ccccc1)C(=O)NC(C)(C)C(=O)N[C@@H](CCC(=O)O)C(=O)N[C@@H](Cc1ccc(O)cc1)C(=O)N[C@@H](Cc1c[nH]c2ccccc12)C(=O)N[C@@H](C)C(=O)N[C@@H](CCC(N)=O)C(=O)N[C@@H](CC(C)C)C(=O)NC(C)(C)C(=O)N[C@@H](CO)C(N)=O)[C@@H](C)O [MP-790] (Ac-LTF[Aib]EYWAQL[Aib]S-NH2) |  | 88 µM (≈ 129 µg/mL) |  |  | 2.11 | Nanoclick permeability assay % Effect [5]: -7.015%; CD % Helicity [6]: 19%; TETCHO: Counterscreen % Effect ([7]; 0% FBS 4Hr): 9.13%; EC50 ([7]; 0% FBS 4Hr, read-out: TETCHO: Counterscreen EC50): > 50600 nM; TETCHO: Counterscreen % Effect ([7]; 0% FBS 16Hr): 119.2%; EPSA (physchem [8]): 176 A^2; EC50 [9]: > 50600 nM; LDH: Cytotoxicity assay: % Effect (HCT116 cells): -1.73%; EC50 ([3]; LDH: Cytotoxicity assay: EC50): > 50600 nM
CC(=O)N[C@@H](CCCCN=[N+]=[N-])C(=O)NCCC(=O)N[C@@H](CC(C)C)C(=O)N[C@H](C(=O)N[C@@H](Cc1ccccc1)C(=O)N[C@]1(C)CCCCCCC=CCCC[C@@](C)(C(=O)N[C@@H](CO)C(=O)N[C@@H](CCCCNC(=N)N)C(=O)N[C@@H](C)C(N)=O)NC(=O)[C@H](CC2CCC2)NC(=O)[C@H](CCC(N)=O)NC(=O)[C@H](C)NC(=O)[C@H](Cc2c[nH]c3ccccc23)NC(=O)[C@H](Cc2ccc(O)cc2)NC(=O)[C@H](CCC(=O)O)NC1=O)[C@@H](C)O [MP-881] (Ac-[Lys(N3)][βAla]LTF[R8]EYWAQ[Cba][S5]S[hArg]A-NH2; staple 6-13) | 1920 nM | 2 µM (≈ 4.14 µg/mL) | 183 A^2 | > 50000 nM | 2.9 | 
CC(=O)N[C@@H](CCCCN=[N+]=[N-])C(=O)NCCC(=O)N[C@@H](CC(C)C)C(=O)N[C@H](C(=O)N[C@@H](Cc1ccccc1)C(=O)N[C@]1(C)CCCCCCC=CCCC[C@@](C)(C(=O)N[C@@H](CO)C(=O)N[C@@H](C)C(=O)N[C@@H](C)C(N)=O)NC(=O)[C@H](CC2CCC2)NC(=O)[C@H](CCC(N)=O)NC(=O)[C@H](CCCCNC(=N)N)NC(=O)[C@H](Cc2c[nH]c3ccccc23)NC(=O)[C@H](Cc2ccc(O)cc2)NC(=O)[C@H](CCC(=O)O)NC1=O)[C@@H](C)O [MP-899] (Ac-[Lys(N3)][βAla]LTF[R8]EYW[hArg]Q[Cba][S5]SAA-NH2; staple 6-13) | 189 nM | 2 µM (≈ 4.14 µg/mL) | 200 A^2 | > 50000 nM | 2.76 | 
CC(=O)N[C@@H](CCCCN=[N+]=[N-])C(=O)NCCC(=O)N[C@@H](CC(C)C)C(=O)N[C@H](C(=O)N[C@@H](Cc1ccccc1)C(=O)N[C@]1(C)CCCCCCC=CCCC[C@@](C)(C(=O)N[C@@H](CCCCNC(=N)N)C(=O)N[C@@H](C)C(=O)N[C@@H](C)C(N)=O)NC(=O)[C@H](CC2CCC2)NC(=O)[C@H](CCC(N)=O)NC(=O)[C@H](C)NC(=O)[C@H](Cc2c[nH]c3ccccc23)NC(=O)[C@H](Cc2ccc(O)cc2)NC(=O)[C@H](CCC(=O)O)NC1=O)[C@@H](C)O [MP-901] (Ac-[Lys(N3)][βAla]LTF[R8]EYWAQ[Cba][S5][hArg]AA-NH2; staple 6-13) | 460 nM |  | 186 A^2 | > 50600 nM |  | Solubility [1]: Poorly Behaved; Partition Coeff LogD [4]: Poorly Behaved
CC[C@H](C)[C@H](NC(=O)[C@H](CC(C)C)NC(=O)[C@@H]1CCCN1C(C)=O)C(=O)N[C@@H](Cc1ccc(O)cc1)C(=O)N[C@@H](CC(C)C)C(=O)N[C@@H](CCCNC(=N)N)C(=O)N[C@@H](CC(C)C)C(=O)N[C@@H](CC(C)C)C(=O)N[C@@H](CCCNC(=N)N)C(=O)NCC(=O)N[C@@H](CCC(N)=O)C(=O)N[C@@H](Cc1ccccc1)C(=O)N[C@@H](CCCCN=[N+]=[N-])C(=O)NCCC(=O)N[C@@H](CC(C)C)C(=O)N[C@H](C(=O)N[C@@H](Cc1ccccc1)C(=O)N[C@]1(C)CCCCCCC=CCCC[C@@](C)(C(=O)N[C@@H](CO)C(=O)N[C@@H](C)C(=O)N[C@@H](C)C(N)=O)NC(=O)[C@H](CC2CCC2)NC(=O)[C@H](CCC(N)=O)NC(=O)[C@H](C)NC(=O)[C@H](Cc2c[nH]c3ccccc23)NC(=O)[C@H](Cc2ccc(O)cc2)NC(=O)[C@H](CCC(=O)O)NC1=O)[C@@H](C)O [MP-880] | 569 nM | 2 µM (≈ 6.88 µg/mL) | 245 A^2 | > 50000 nM | 3.54 | 
CC(=O)N[C@@H](CCCCN=[N+]=[N-])C(=O)NCCC(=O)N[C@@H](CC(C)C)C(=O)N[C@H](C(=O)N[C@@H](Cc1ccccc1)C(=O)N[C@]1(C)CCCCCCC=CCCC[C@@](C)(C(=O)N[C@@H](CO)C(=O)N[C@@H](C)C(=O)N[C@@H](C)C(N)=O)NC(=O)[C@H](CC2CCC2)NC(=O)[C@H](CCCCNC(=N)N)NC(=O)[C@H](C)NC(=O)[C@H](Cc2c[nH]c3ccccc23)NC(=O)[C@H](Cc2ccc(O)cc2)NC(=O)[C@H](CCC(=O)O)NC1=O)[C@@H](C)O [MP-900] (Ac-[Lys(N3)][βAla]LTF[R8]EYWA[hArg][Cba][S5]SAA-NH2; staple 6-13) | 1040 nM | 10 µM (≈ 20.1 µg/mL) | 187 A^2 |  | 3.03 | 
CC(=O)N[C@@H](CC(C)C)C(=O)N[C@H](C(=O)N[C@@H](Cc1ccccc1)C(=O)N[C@]1(C)CCCCCCC=CCCC[C@@](C)(C(=O)N[C@@H](CO)C(=O)N[C@@H](C)C(=O)N[C@@H](C)C(=O)NCCCCCC(N)=O)NC(=O)[C@H](CC2CCC2)NC(=O)[C@H](CCC(N)=O)NC(=O)[C@H](C)NC(=O)[C@H](Cc2c[nH]c3ccccc23)NC(=O)[C@H](Cc2ccc(O)cc2)NC(=O)[C@H](CCC(=O)O)NC1=O)[C@@H](C)O [MP-670] |  |  | 193 A^2 | > 50000 nM |  | Solubility [1]: Poorly Behaved; Partition Coeff LogD [4]: Poorly Behaved
CC(=O)N[C@@H](CCCCN=[N+]=[N-])C(=O)NCCC(=O)N[C@@H](CC(C)C)C(=O)N[C@H](C(=O)N[C@@H](Cc1ccccc1)C(=O)N[C@]1(C)CCCCCCC=CCCC[C@@](C)(C(=O)N[C@@H](CO)C(=O)N[C@@H](C)C(=O)N[C@@H](C)C(N)=O)NC(=O)[C@H](CC2CCC2)NC(=O)[C@H](CCC(N)=O)NC(=O)[C@H](C)NC(=O)[C@H](Cc2c[nH]c3ccccc23)NC(=O)[C@H](Cc2ccc(O)cc2)NC(=O)[C@@H]2CCCN2C1=O)[C@@H](C)O [MP-8834] |  |  |  |  | 3.03 | Nanoclick permeability assay % Effect [5]: 129.4%; cell entry EC50 (in vitro): 312 nM; CD % Helicity [6]: 21.9%; TETCHO: Counterscreen % Effect ([7]; 0% FBS 4Hr): 11.7%; EPSA (physchem [8]): 187 A^2; LDH: Cytotoxicity assay: % Effect (HCT116 cells; 0% FBS 4Hr): 1.728%; EC50 ([3]; 0% FBS 4Hr, read-out: LDH: Cytotoxicity assay: EC50): > 50600 nM
